Literature values, collected in US5364629A, “Device and method for enhanced administration of physostigmine” (priority 1991, dated 1994).

Tests used:
[1] = early observation, myasthenia gravis background
[2] = American Journal of Psychiatry, July 1979
[3] = tablets
[4] = Davis, et al, Science, Volume 201, p. 272 (1978)
[5] = systemic use

## CNC(=O)Oc1ccc2c(c1)[C@]1(C)CCN(C)[C@@H]1N2C [Physostigmine, physostigmine]
[1]
  strength of muscular contraction: increased strength of muscular contraction
[2]
  effect on tardive dyskinesia: positive: therapeutic effect on tardive dyskinesia
[3]
  drug blood levels for multiple oral doses: ranging from a maximum above the required level (and possibly in the toxic range) to a minimum which may be below the effective dose
[4]
  retrieval of information from long-term memory: retrieval of information from long-term memory was also improved
  storage of information into long-term memory: significantly enhanced storage of information into long-term memory
[5]
  therapeutic window: narrow therapeutic window
